Among the data in PubChem BioAssay (NCI) are TGI values, retold here.

The structures appear in SMILES notation.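 Five concentrations, 48 hours, 96-well plates. TGI: concentration producing complete growth inhibition.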 A value given as a limit tells only on which side of the number the result lay.

Some test systems named below: OVCAR-3 ovarian; SN12C renal; UACC-62 melanoma; OVCAR-5 ovarian; M14 melanoma; HCC-2998 colon; UACC-257 melanoma; T-47D breast; SK-MEL-28 melanoma; SF-295 CNS.
Assay in all cases: DTP human tumour cell line panel, 48 h

By TGI is commonly meant the concentration giving total growth inhibition. The low end stands for greater sensitivity of the cells, the high end for lower sensitivity of the cells. Consider `C[n+]1c(-c2ccc(/C=C/C=N\NC(=O)c3ccc(C(=O)N/N=C\C=C\c4ccc(-c5cn6ccccc6[n+]5C)cc4)cc3)cc2)cn2ccccc21`, for which the TGI with OVCAR-3 ovarian, in the test with SN12C renal, with UACC-62 melanoma, in the test on OVCAR-5 ovarian, in the test with M14 melanoma and with HCC-2998 colon was over 100 µM in each case. For the same molecule, the TGI is over 100 µM in the test with UACC-257 melanoma, over 80.2 µM in the test with T-47D breast, over 100 µM in the test on SK-MEL-28 melanoma and over 100 µM with SF-295 CNS.

Turning to `NC(=O)N/N=C1\CC2C3CC4C2C4C13` (stereo not given), the TGI in the test on OVCAR-3 ovarian, with SN12C renal, with UACC-62 melanoma, with OVCAR-5 ovarian, in the test on M14 melanoma and in the test on HCC-2998 colon was over 100 µM each time. The TGI in the test with UACC-257 melanoma, in the test on T-47D breast, with SK-MEL-28 melanoma and in the test with SF-295 CNS was over 100 µM in each case.

Consider `COC(=O)c1cc(C#N)[nH]c1-c1cc(Br)cs1`, for which the TGI in the test on OVCAR-3 ovarian was 21.9 µM; in the test on SN12C renal, 32.3 µM; with UACC-62 melanoma, 38.4 µM; with OVCAR-5 ovarian it was 55.7 µM; with M14 melanoma, 27.7 µM; with HCC-2998 colon it was over 57.5 µM. For the same molecule, the concentration for total growth inhibition (TGI) was found to be 28.9 µM in the test on UACC-257 melanoma, 12.8 µM in the test with T-47D breast, 36.5 µM with SK-MEL-28 melanoma and 24.7 µM in the test with SF-295 CNS.

Regarding `Nc1nn2c(=O)c3ccccc3nc2s1`, the TGI is over 100 µM with OVCAR-3 ovarian; over 100 µM in the test with SN12C renal; over 100 µM with UACC-62 melanoma; over 100 µM in the test with OVCAR-5 ovarian; 93.8 µM in the test on M14 melanoma; over 100 µM in the test with HCC-2998 colon. The TGI with UACC-257 melanoma, in the test on T-47D breast, with SK-MEL-28 melanoma and in the test with SF-295 CNS was over 100 µM throughout.

For `N#Cc1nc(C2CCC2)oc1N`, the TGI in the test on OVCAR-3 ovarian, with SN12C renal, in the test on UACC-62 melanoma, in the test on OVCAR-5 ovarian, with M14 melanoma and in the test with HCC-2998 colon was over 100 µM each time. Also, the TGI with UACC-257 melanoma, in the test on T-47D breast, in the test with SK-MEL-28 melanoma and in the test on SF-295 CNS was over 100 µM in each case.

Turning to `O=C1c2ccccc2NC(=S)[C@@H]2CCCN12`, the TGI with OVCAR-3 ovarian, with SN12C renal, with UACC-62 melanoma, in the test with OVCAR-5 ovarian, with M14 melanoma and in the test on HCC-2998 colon was over 100 µM throughout. Further, the TGI with UACC-257 melanoma, in the test on T-47D breast, in the test with SK-MEL-28 melanoma and with SF-295 CNS was over 100 µM throughout.

With `CN(C)CC1CCC(CN(C)C)C1=O` (stereo not given), the concentration for total growth inhibition (TGI) was 7.24 µM in the test with OVCAR-3 ovarian; 13.4 µM in the test on SN12C renal; 27.2 µM in the test with UACC-62 melanoma; 20.3 µM in the test on OVCAR-5 ovarian; 7.38 µM with M14 melanoma; 32.9 µM in the test with HCC-2998 colon. Also, the TGI in the test with UACC-257 melanoma worked out at 17.6 µM; with T-47D breast, 3.48 µM; with SK-MEL-28 melanoma, 36.5 µM; with SF-295 CNS, 32.8 µM.

Take `CCOC(=O)C#Cc1ccccc1`: the TGI with OVCAR-3 ovarian is 45.7 µM; in the test with SN12C renal, 80.1 µM; in the test with UACC-62 melanoma, 32.5 µM; in the test on OVCAR-5 ovarian it was 19.3 µM; with M14 melanoma, 39.1 µM; with HCC-2998 colon, 27.8 µM. For the same molecule, the TGI in the test with UACC-257 melanoma is over 100 µM; with T-47D breast, over 100 µM; with SK-MEL-28 melanoma it was 44.3 µM; with SF-295 CNS, 30.2 µM.

Take `COc1cc2c(cc1OC)-c1cc3ccccc3c(=O)n1CC2`: the TGI in the test with OVCAR-3 ovarian was 73.3 µM; with SN12C renal it was over 100 µM; in the test with UACC-62 melanoma, 39 µM; with OVCAR-5 ovarian, over 100 µM; in the test on M14 melanoma, 80.3 µM; with HCC-2998 colon, 50.1 µM. For the same molecule, the total growth inhibition concentration (TGI) in the test with UACC-257 melanoma was over 100 µM; with T-47D breast it was 81.5 µM; in the test with SK-MEL-28 melanoma, 90.5 µM; in the test on SF-295 CNS, 62.1 µM.

On to `OCc1ccc2c(c1)CC1(Cc3ccc(/C=N/O)cc3C1)C2` (stereo not given), for which the TGI was 17.1 µM in the test with OVCAR-3 ovarian; over 54.5 µM with SN12C renal; over 56.1 µM in the test with UACC-62 melanoma; over 87.7 µM in the test with OVCAR-5 ovarian; 21.6 µM in the test with M14 melanoma; 11.5 µM with HCC-2998 colon. In addition, the TGI was 18.7 µM in the test with UACC-257 melanoma, over 100 µM in the test on T-47D breast, over 100 µM in the test on SK-MEL-28 melanoma and over 40.8 µM with SF-295 CNS.

In the case of `CCOC(=O)/C=C(\C(=O)OCC)n1ccc(=O)n(Cc2cn(COCCOC(C)=O)nn2)c1=O`, the TGI was 48 µM in the test with OVCAR-3 ovarian; 41.8 µM with SN12C renal; 38.6 µM in the test with UACC-62 melanoma; 55.2 µM in the test with OVCAR-5 ovarian; over 100 µM in the test with M14 melanoma; 30.2 µM with HCC-2998 colon. Further, the TGI with UACC-257 melanoma is 47.2 µM; in the test on T-47D breast, 55.8 µM; with SK-MEL-28 melanoma, 41 µM; with SF-295 CNS it was over 100 µM.

For `O=C1NCN(c2ccccc2)C12CCN(CCCN1CCN(CCOC(c3ccc(F)cc3)c3ccc(F)cc3)CC1)CC2`, the TGI amounted to 3.86 µM in the test with OVCAR-3 ovarian; 4.14 µM with SN12C renal; 3.75 µM in the test with UACC-62 melanoma; 11.4 µM in the test on OVCAR-5 ovarian; 3.48 µM in the test on M14 melanoma; 2.93 µM in the test with HCC-2998 colon. In addition, the TGI with UACC-257 melanoma amounted to 3.44 µM; in the test with T-47D breast, 3.09 µM; in the test with SK-MEL-28 melanoma, 6.3 µM; in the test with SF-295 CNS, 3.38 µM.
